Source: article PMC10469688, “Comparative pharmacokinetics and safety evaluation of high dosage regimens of Andrographis paniculata aqueous extract after single and multiple oral administration in healthy participants” (Frontiers in Pharmacology, 2023)
Read-outs that look alike come from different tables or passages of the source.

Tests used:
[1] = Plasma pharmacokinetics after single and multiple oral administration of A. paniculata aqueous extract capsules in healthy participants (HPLC-MS/MS, non-compartmental analysis); type: in vivo, human; set-up: MRT: unit: h; Cmax: unit: ng/mL
Protocol: (§1) An opened-label, two-dosage, single- and multiple-oral dosing, single center, phase I safety and pharmacokinetic study was conducted in healthy participants while they were under a fasting condition. […] Two weeks prior to the beginning of the clinical study, the volunteers were advised to abstain from other dietary supplements, herbal products, or any concomitant medicines. During the period of the study, no other medications were allowed. All participants fasted overnight for at least 8 h before drug administration. The study conducted a single-dose investigation on day 1 by oral administering A. paniculata extract capsules once in both groups. Twelve participants in group 1 received 3 capsules orally (equivalent to 60 mg of andrographolide) with 240 mL of water, while another twelve participants in group 2 received 6 capsules (equivalent to 120 mg of andrographolide). This was followed by serial blood sampling for up to 24 h after dosing. For blood collection, 6 mL of venous blood in EDTA tube was collected via a forearm vein catheter at each time point including pre-dose (0 h), and post-dose after oral administration (T 0.167, 0.333, 0.5, 0.75, 1, 1.5, 2, 4, 6, 8, 10, 12 and 24 h). Subsequently, observation of elimination continued until 48 h post-dose to ensure complete excretion of the major active diterpenoids through urine. Urine samples were collected at day 0 (the day prior to dosing) and day 1–2 (T 0–4, 4–8, 8–12,12–24, 24–32, 32–40, and 40–48 h after dosing). The study then proceeded to investigate multiple doses in both groups by administering continuous oral doses from day 3 until the morning of day 5. (dosing at T48, 56, 64, 72, 80, 88, and 96 h). In group 1, three capsules were administered orally before meals, three times a day (3 × 3 capsules at 8-h intervals, calculated as 180 mg/day of andrographolide); whereas in group 2, six capsules were administered daily, three times a day (6 × 3 capsules at 8-h intervals, calculated as 360 mg/day of andrographolide). For serial blood sampling of multiple doses, 6 mL of blood samples were collected starting in the morning of day 5 (sampling timepoints T 96, 96.167, 96.333, 96.5, 96.75, 97, 97.5, 98, 100, 102, and 104 h post dose).
(§2) All collected blood samples were centrifuged at 4,000 rpm, 4^οC, for 5 min. Plasma was collected and stored in cryotubes at −70^οC until analysis. Urine was kept as 10 mL aliquot samples at each time point and stored at −70^οC until analysis. Extraction was performed by protein precipitation method as previously reported ([Songvut et al., 2023]). Briefly, 50 µL of either a plasma or urine sample was mixed with 200 µL of methanol containing an internal standard (IS) of digoxin (50 ng/mL). Pretreated samples were vortexed for 10 min and were then centrifuged at 12,000 rpm, 4°C, for 10 min. The supernatants were filtered through a 0.2 µm PVDF membrane and were subsequently transferred to vials for HPLC-MS/MS analysis.
(§3) Hydrolysis of the glucuronidated and sulfated conjugates was conducted by enzymatic incubation as our previous published method ([Songvut et al., 2023]). To analyze the metabolic conjugations, 50 μL of either a plasma or urine sample was pre-incubated at 37^οC with 50 µL of either of β-glucuronidase in sodium phosphate buffer (pH 6.8) for 30 min, or sulfatase in sodium acetate buffer (pH 5) for 2 h. IS (50 ng/mL) was then added along with 150 μL of methanol to precipitate protein. The extracted samples were then vortexed and centrifuged at 12,000 rpm, 4^οC, for 10 min. The supernatants were collected by filtering through a 0.2-µm PVDF membrane before HPLC-MS/MS injection.
(§4) Analysis for the concentrations of targeted compounds in plasma and urine samples were carried out using HPLC-MS/MS at the Laboratory of Pharmacology, Chulabhorn Research Institute, Bangkok, Thailand. The quantitative determination was performed according to a previously validated method ([Songvut et al., 2023]). […]

[2] = Cumulative urinary excretion after single oral administration of A. paniculata aqueous extract capsules in healthy participants; type: in vivo, human; conditions: urine T 0–48 h
Protocol: as §1, §2, §3, §4

[3] = single oral dose equivalent to 60 mg andrographolide, n = 12, mean ± SD
[4] = single oral dose equivalent to 120 mg andrographolide, n = 11, mean ± SD
[5] = multiple oral doses 60 mg × 3 times/day of andrographolide, n = 12, mean ± SD
[6] = multiple oral doses 60 mg × 3 times/day of andrographolide, n = 12, median [IQR]
[7] = multiple oral doses 120 mg × 3 times/day of andrographolide, n = 11, mean ± SD
[8] = multiple oral doses 120 mg × 3 times/day of andrographolide, n = 11, median [IQR]
[9] = single oral dose equivalent to 60 mg andrographolide, n = 12, median [IQR]
[10] = single oral dose equivalent to 120 mg andrographolide, n = 11, median [IQR]

For `C=C1CC[C@@H]2[C@](C)(CO)[C@H](O)CC[C@@]2(C)[C@@H]1CCC1=CCOC1=O` [14-Deoxyandrographolide, 14-deoxyandrographolide], the CL/F ([1]; human, plasma, multiple oral doses 60 mg × 3 times/day of andrographolide, n = 12, mean ± SD) was 255 mL/min/kg, the AUC(0-t) ([1]; human, plasma, multiple oral doses 60 mg × 3 times/day of andrographolide, n = 12, mean ± SD, read-out: AUC(0–8h)) was 11.3 ± 3.3 ng·h/mL and the MRT ([1]; human, plasma, multiple oral doses 60 mg × 3 times/day of andrographolide, n = 12, mean ± SD, read-out: MRT) was 1.5 ± 0.11 h. It also gave a Vd/F ([1]; human, plasma, multiple oral doses 60 mg × 3 times/day of andrographolide, n = 12, mean ± SD, read-out: Vd/F) of 5.4 ± 3.1 L/kg, a half-life ([1]; human, plasma, multiple oral doses 60 mg × 3 times/day of andrographolide, n = 12, median [IQR]) of 0.23 h and a Tmax ([1]; human, plasma, multiple oral doses 60 mg × 3 times/day of andrographolide, n = 12, median [IQR], read-out: Tmax) of 1 h. It also gave a CL/F ([1]; human, plasma, multiple oral doses 120 mg × 3 times/day of andrographolide, n = 11, mean ± SD) of 302 mL/min/kg, an AUC(0-t) ([1]; human, plasma, multiple oral doses 120 mg × 3 times/day of andrographolide, n = 11, mean ± SD, read-out: AUC(0–8h)) of 20 ± 9.1 ng·h/mL and an MRT ([1]; human, plasma, multiple oral doses 120 mg × 3 times/day of andrographolide, n = 11, mean ± SD, read-out: MRT) of 1.6 ± 0.07 h. For the same compound, the Vd/F ([1]; human, plasma, multiple oral doses 120 mg × 3 times/day of andrographolide, n = 11, mean ± SD, read-out: Vd/F) was 5.7 ± 2.8 L/kg, the half-life ([1]; human, plasma, multiple oral doses 120 mg × 3 times/day of andrographolide, n = 11, median [IQR]) was 0.21 h and the Tmax ([1]; human, plasma, multiple oral doses 120 mg × 3 times/day of andrographolide, n = 11, median [IQR], read-out: Tmax) was 1 h. For the same compound, the Tmax ([1]; human, plasma, single oral dose equivalent to 60 mg andrographolide, n = 12, median [IQR], read-out: Tmax) was 1 h, the CL/F ([1]; human, plasma, single oral dose equivalent to 120 mg andrographolide, n = 11, mean ± SD) was 293 mL/min/kg and the AUC(0-inf) ([1]; human, plasma, single oral dose equivalent to 120 mg andrographolide, n = 11, mean ± SD, read-out: AUC(0-inf)) was 20.5 ± 8.8 ng·h/mL. The AUC(0-t) ([1]; human, plasma, single oral dose equivalent to 120 mg andrographolide, n = 11, mean ± SD, read-out: AUC(0–24h)) was 20.5 ± 8.8 ng·h/mL, the MRT ([1]; human, plasma, single oral dose equivalent to 120 mg andrographolide, n = 11, mean ± SD, read-out: MRT) was 1.5 ± 0.08 h and the Vd/F ([1]; human, plasma, single oral dose equivalent to 120 mg andrographolide, n = 11, mean ± SD, read-out: Vd/F) was 5.5 ± 2.9 L/kg. For the same compound, the half-life ([1]; human, plasma, single oral dose equivalent to 120 mg andrographolide, n = 11, median [IQR]) was 0.21 h, the Tmax ([1]; human, plasma, single oral dose equivalent to 120 mg andrographolide, n = 11, median [IQR], read-out: Tmax) was 1 h and the Cmax ([1]; human, multiple oral doses 60 mg × 3 times/day of andrographolide, plasma T 0–8 h, n = 12, mean ± SD, read-out: Cmax) was 6.6 ± 1.9 ng/mL. The Cmax ([1]; human, multiple oral doses 120 mg × 3 times/day of andrographolide, plasma T 0–8 h, n = 11, mean ± SD, read-out: Cmax) was 11.3 ± 5.5 ng/mL, the Cmax ([1]; human, single oral dose equivalent to 60 mg andrographolide, plasma T 0–24 h, n = 12, mean ± SD, read-out: Cmax) was 4.2 ± 3.4 ng/mL and the Cmax ([1]; human, single oral dose equivalent to 120 mg andrographolide, plasma T 0–24 h, n = 11, mean ± SD, read-out: Cmax) was 11.6 ± 5.4 ng/mL. It also gave a Cumulative urine [2, 3] of 108 ± 36.5 µg and a Cumulative urine [2, 4] of 199 ± 77.3 µg.

In the case of `C=C1CCC2C(C)(CO)C(O)CCC2(C)C1C=CC1=CCOC1=O` (stereo not shown) [14-Deoxy-11,12-didehydroandrographolide, 14-deoxy-11, 12-didehydroandrographolide], the “AUC(0–8h)” value [1, 5] is reported as 329 ± 55.5 ng·h/mL, the Cl/F [1, 5] is reported as 16.3 ± 3.83 mL/min/kg and the MRT [1, 5] is reported as 3.0 ± 0.61 h. For the same compound, the Vd/F [1, 5] was 2.6 ± 1.8 L/kg, the Half life [1, 6] was 1.6[0.80] h and the Tmax [1, 6] was 1.0[0.20] h. The Cmax ([1]; multiple oral doses 60 mg × 3 times/day of andrographolide, plasma T 0–8 h, n = 12, mean ± SD) was 137 ± 29.3 ng/mL, the “AUC(0–8h)” value [1, 7] was 693 ± 165 ng·h/mL and the Cl/F [1, 7] was 14.2 ± 2.33 mL/min/kg. The MRT [1, 7] was 4.5 ± 1.2 h, the Vd/F [1, 7] was 4.4 ± 2.0 L/kg and the Half life [1, 8] was 3.0[1.5] h. The Tmax [1, 8] was 1.0[0.33] h, the Cmax ([1]; multiple oral doses 120 mg × 3 times/day of andrographolide, plasma T 0–8 h, n = 11, mean ± SD) was 237 ± 41.4 ng/mL and the “AUC(0-inf)” value [1, 3] was 328 ± 102 ng·h/mL. For the same compound, the “AUC(0–24h)” value [1, 3] was 328 ± 102 ng·h/mL, the Cl/F [1, 3] was 18.3 ± 4.5 mL/min/kg and the MRT [1, 3] was 4.3 ± 0.44 h. For the same compound, the Vd/F [1, 3] was 2.1 ± 0.60 L/kg, the Half life [1, 9] was 1.4[0.07] h and the Tmax [1, 9] was 1.0[0.33] h. For the same compound, the Cmax ([1]; single oral dose equivalent to 60 mg andrographolide, plasma T 0–24 h, n = 12, mean ± SD) was 98.6 ± 40.3 ng/mL, the “AUC(0-inf)” value [1, 4] was 674 ± 274 ng·h/mL and the “AUC(0–24h)” value [1, 4] was 674 ± 274 ng·h/mL. The Cl/F [1, 4] was 18.3 ± 6 mL/min/kg, the MRT [1, 4] was 4.1 ± 0.65 h and the Vd/F [1, 4] was 2.0 ± 0.69 L/kg. The Half life [1, 10] was 1.2[0.06] h, the Tmax [1, 10] was 1.5[0.25] h and the Cmax ([1]; single oral dose equivalent to 120 mg andrographolide, plasma T 0–24 h, n = 11, mean ± SD) was 211 ± 138 ng/mL. The Cumulative urine [2, 3] was 70.6 ± 27.6 µg and the Cumulative urine [2, 4] was 159 ± 56.8 µg.
